Patent US20020137929A1, “1 - (3-heterocyclylphenyl) isothiourea, -isourea, -guanidine and -amidine herbicidal agents” (Intellectual Property Department, BASF Aktiengesellschaft, priority 1998, published 2002)

Legend:
GALAP (Galium) [1] = assay: Postemergence herbicidal evaluation; assay type: in vivo, Galium aparine; settings: postemergence
In short: (§1)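 Each compound, dispersed in an acetone/water mix (50/50) carrying 0.5% TWEEN 20, is nozzle-sprayed at 40 psi on approximately two-week-old seedlings at about 0.0156–0.500 kg/ha. Plants are assessed 4–5 weeks afterward on a 0–9 scale relative to control; duplicate tests are averaged.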

ABUTH (Velvetleaf) = assay: Postemergence herbicidal evaluation; assay type: in vivo, Abutilon theophrasti; settings: postemergence
In short: as §1

MOOVA (Monochoria) = assay: Postemergence weed control under flooded paddy conditions; assay type: in vivo, Monochoria vaginalis; settings: postemergence weeds, rated 3 to 4 weeks after treatment
In short: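 Injury ratings (0–9 scale covering stand, vigor, malformation, size, chlorosis and overall appearance versus control) were made three to four weeks after treatment. Test material, about 0.0313 to 0.500 kg/ha a.i. in 50/50 v/v aqueous/acetone, was added to flood water 1.5 to 3 cm deep over 3 to 5 cm weeds and 1.5 to 2.5 leaf rice.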

GALAP (Galium) [2] = assay: Preemergence herbicidal evaluation; assay type: in vivo, Galium aparine; settings: preemergence, rated 4-5 weeks after treatment, 0-9 scale
In short: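 Visual 0-9 rating vs control (stand, vigor, malformation, size, chlorosis, overall appearance), scored 4-5 wk after spraying. Seeded soil cups were treated preemergence with compound in aqueous acetone, ~0.0156-0.500 kg/ha equivalent.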

`CN1C(=O)C(CC(=O)Nc2ccccc2)SC1=Nc1cc(-n2c(=O)cc(C(F)(F)F)n(C)c2=O)c(F)cc1Cl` (stereo not shown) [Compound 91, 2-{{2-Chloro-5-[3,6-dihydro-3-methyl-2,6-dioxo-4-(trifluoromethyl)-1(2H)-pyrimidinyl]-4-fluorophenyl}imino}-3-methyl-4-oxo-5-thiazolidineacetanilide] was tested, and the GALAP herbicidal rating (GALAP (Galium) [1]; rate 0.0158 kg/ha) was 0.0, the GALAP herbicidal rating (GALAP (Galium) [1]; rate 0.0315 kg/ha) was 0.0 and the GALAP herbicidal rating (GALAP (Galium) [1]; rate 0.0630 kg/ha) was 0.0. It also gave an ABUTH herbicidal rating (ABUTH (Velvetleaf); rate 0.0158 kg/ha) of 7.0, an ABUTH herbicidal rating (ABUTH (Velvetleaf); rate 0.0315 kg/ha) of 9.0 and an ABUTH herbicidal rating (ABUTH (Velvetleaf); rate 0.0630 kg/ha) of 9.0. The “Herbicidal rating MOOVA” value (MOOVA (Monochoria); Rate 0.0313 kg/ha) was 9.0, the “Herbicidal rating MOOVA” value (MOOVA (Monochoria); Rate 0.0625 kg/ha) was 9.0 and the “Herbicidal rating MOOVA” value (MOOVA (Monochoria); Rate 0.1250 kg/ha) was 9.0. For the same compound, the “Herbicidal rating MOOVA” value (MOOVA (Monochoria); Rate 0.2500 kg/ha) was 9.0, the GALAP rating (GALAP (Galium) [2]; 0.1250 kg/ha) was 0.0 and the GALAP rating (GALAP (Galium) [2]; 0.2500 kg/ha) was 0.0.
With `C=CCN1C(=O)C(CC(=O)NS(C)(=O)=O)SC1=Nc1cc(-n2c(=O)cc(C(F)(F)F)n(C)c2=O)c(F)cc1Cl` (stereo not shown) [Compound 96, 3-Allyl-2-{{2-chloro-5-[3,6-dihydro-3-methyl-2,6-dioxo-4-(trifluoromethyl)-1(2H)-pryimidinyl]-4-fluorophenyl}imino}-N-(methylsulfonyl)-4-oxo-5-thiazolidineacetamide] the GALAP herbicidal rating (GALAP (Galium) [1]; rate 0.0156 kg/ha) was 0.0, the GALAP herbicidal rating (GALAP (Galium) [1]; rate 0.0313 kg/ha) was 0.0 and the GALAP herbicidal rating (GALAP (Galium) [1]; rate 0.0625 kg/ha) was 1.0. For the same compound, the GALAP herbicidal rating (GALAP (Galium) [1]; rate 0.1250 kg/ha) was 0.0, the ABUTH herbicidal rating (ABUTH (Velvetleaf); rate 0.0156 kg/ha) was 1.0 and the ABUTH herbicidal rating (ABUTH (Velvetleaf); rate 0.0313 kg/ha) was 7.0. For the same compound, the ABUTH herbicidal rating (ABUTH (Velvetleaf); rate 0.0625 kg/ha) was 9.0, the ABUTH herbicidal rating (ABUTH (Velvetleaf); rate 0.1250 kg/ha) was 9.0 and the “Herbicidal rating MOOVA” value (MOOVA (Monochoria); Rate 0.0313 kg/ha) was 2.0. For the same compound, the “Herbicidal rating MOOVA” value (MOOVA (Monochoria); Rate 0.0625 kg/ha) was 2.0, the “Herbicidal rating MOOVA” value (MOOVA (Monochoria); Rate 0.1250 kg/ha) was 3.0 and the “Herbicidal rating MOOVA” value (MOOVA (Monochoria); Rate 0.2500 kg/ha) was 3.0. The GALAP rating (GALAP (Galium) [2]; 0.0313 kg/ha) was 0.0, the GALAP rating (GALAP (Galium) [2]; 0.0625 kg/ha) was 2.0 and the GALAP rating (GALAP (Galium) [2]; 0.1250 kg/ha) was 2.0. The GALAP rating (GALAP (Galium) [2]; 0.2500 kg/ha) was 6.0 and the GALAP rating (GALAP (Galium) [2]; 0.5000 kg/ha) was 7.0.
With `CCOC(=O)CN1C(=O)C(CC(=O)NO)S/C1=N/c1cc(-n2c(=O)cc(C(F)(F)F)n(C)c2=O)c(F)cc1Cl` (stereo not shown) [Compound 98, Ethyl 2-{{2-chloro-5-[3,6-dihydro-3-methyl-2,6-dioxo-4-(trifluoromethyl)-1(2H)-pyrimidinyl]-4-fluorophenyl}imino}-5-[(hydroxycarbamoyl)methyl]-4-oxo-3-thiazolidineacetate] the GALAP herbicidal rating (GALAP (Galium) [1]; rate 0.0156 kg/ha) was 0.0, the GALAP herbicidal rating (GALAP (Galium) [1]; rate 0.0313 kg/ha) was 0.0 and the GALAP herbicidal rating (GALAP (Galium) [1]; rate 0.0625 kg/ha) was 0.0. It also gave a GALAP herbicidal rating (GALAP (Galium) [1]; rate 0.1250 kg/ha) of 1.0, an ABUTH herbicidal rating (ABUTH (Velvetleaf); rate 0.0156 kg/ha) of 2.0 and an ABUTH herbicidal rating (ABUTH (Velvetleaf); rate 0.0313 kg/ha) of 7.0. The ABUTH herbicidal rating (ABUTH (Velvetleaf); rate 0.0625 kg/ha) was 9.0, the ABUTH herbicidal rating (ABUTH (Velvetleaf); rate 0.1250 kg/ha) was 9.0 and the “Herbicidal rating MOOVA” value (MOOVA (Monochoria); Rate 0.0313 kg/ha) was 9.0. For the same compound, the “Herbicidal rating MOOVA” value (MOOVA (Monochoria); Rate 0.0625 kg/ha) was 9.0, the “Herbicidal rating MOOVA” value (MOOVA (Monochoria); Rate 0.1250 kg/ha) was 9.0 and the “Herbicidal rating MOOVA” value (MOOVA (Monochoria); Rate 0.2500 kg/ha) was 9.0. It also gave a GALAP rating (GALAP (Galium) [2]; 0.0156 kg/ha) of 1.0, a GALAP rating (GALAP (Galium) [2]; 0.0313 kg/ha) of 0.0 and a GALAP rating (GALAP (Galium) [2]; 0.0625 kg/ha) of 6.0. It also gave a GALAP rating (GALAP (Galium) [2]; 0.2500 kg/ha) of 7.0 and a GALAP rating (GALAP (Galium) [2]; 0.5000 kg/ha) of 7.0.
For `CN1C(=O)C(CC(=O)NS(=O)(=O)c2ccccc2)SC1=Nc1cc(-n2c(=O)cc(C(F)(F)F)n(C)c2=O)c(F)cc1Cl` (stereo not shown) [Compound 102, 2-{{2-Chloro-5-[3,6-dihydro-3-methyl-2,6-dioxo-4-(trifluoromethyl)-1(2H)-pyrimidinyl]-4-fluorophenyl}imino}-3-methyl-4-oxo-N-(phenylsulfonyl)-5-thiazolidineacetamide], the “Herbicidal rating GALAP” value (GALAP (Galium) [1]; rate 0.0156 kg/ha) was 1.0, the “Herbicidal rating GALAP” value (GALAP (Galium) [1]; rate 0.0313 kg/ha) was 1.0 and the “Herbicidal rating GALAP” value (GALAP (Galium) [1]; rate 0.0625 kg/ha) was 1.0. For the same compound, the “Herbicidal rating GALAP” value (GALAP (Galium) [1]; rate 0.1250 kg/ha) was 4.0, the “Herbicidal rating ABUTH” value (ABUTH (Velvetleaf); rate 0.0156 kg/ha) was 7.0 and the “Herbicidal rating ABUTH” value (ABUTH (Velvetleaf); rate 0.0313 kg/ha) was 9.0. The “Herbicidal rating ABUTH” value (ABUTH (Velvetleaf); rate 0.0625 kg/ha) was 9.0, the “Herbicidal rating ABUTH” value (ABUTH (Velvetleaf); rate 0.1250 kg/ha) was 9.0 and the “Herbicidal rating MOOVA” value (MOOVA (Monochoria); Rate 0.2500 kg/ha) was 0.0. The “Herbicidal rating MOOVA” value (MOOVA (Monochoria); Rate 0.5000 kg/ha) was 4.0, the GALAP rating (GALAP (Galium) [2]; 0.0156 kg/ha) was 0.0 and the GALAP rating (GALAP (Galium) [2]; 0.0313 kg/ha) was 1.0. The GALAP rating (GALAP (Galium) [2]; 0.0625 kg/ha) was 0.0, the GALAP rating (GALAP (Galium) [2]; 0.2500 kg/ha) was 1.0 and the GALAP rating (GALAP (Galium) [2]; 0.5000 kg/ha) was 4.0.
